Laboratory results: patent EP2934524B1, “PENETHAMATE VETERINARY INJECTABLE FORMULATIONS” (Alleva Animal Health Limited, priority 2012, dated 2014)

Tests used:
[1] = following injection, equivalent dose; cited from earlier work
[2] = Estimated solubility and discolouration of penethamate in organic solvents; format: physicochemical; settings: Solketal, propylene glycol, glycerol formal and DGMEE
Description: Solubility of penethamate was estimated at the concentrations of 0.2% w/w and 1.0% w/w, in the following solvents: glycerine, Solketal, polyethylene glycol 200 (PEG 200), diethylene glycol butyl ether (DGBE), propylene glycol (PG), glycofural, diethylene glycol monomethyl ether (DGME), diethylene glycol methyl ethyl ether (DGMEE), dimethyl isosorbide (DMI), 2-pyrrolidone (2-pyrol), N-methyl-2-pyrrolidone (NMP), dimethyl acetamide (DMA), glycerol formal (GF), benzyl alcohol (BA), ethyl lactate and dimethyl sulfoxide (DMSO).

- discolouration in organic solvent ([2]; 0.2% w/w and 1.0% w/w in glycerine): no discolouration
- solubility in organic solvent ([2]; estimated at 0.2% w/w and 1.0% w/w in glycerine): minimal solubility
Compound: CCN(CC)CCOC(=O)[C@@H]1N2C(=O)[C@@H](NC(=O)Cc3ccccc3)[C@H]2SC1(C)C [penethamate hydriodide, 2-(diethylamino)ethyl (2S,5R,6R)-3,3-dimethyl-7-oxo-6-[(2-phenylacetyl)amino]-4-thia-1-azabicyclo[3.2.0] heptane-2-carboxylate]
- levels of penicillin in the milk relative to other benzyl-penicillin preparations [1]: about 10 times higher
